From EPA's ToxValDB 9.5 (doi:10.2903/j.efsa.2017.4978)

Columns and labels:
Mus musculus = settings: acute; mortality
Tagia sp. = settings: chronic/long-term; duration: 56 days; reproduction
Folsomia candida = settings: chronic/long-term; duration: 28 days; reproduction
Hypoaspis aculeifer = settings: chronic/long-term; duration: 14 days; reproduction
Aphidius rhopalosiphi = assay: LR50; higher = less toxic; settings: not reported; mortality
Bibionidae = settings: chronic/long-term; duration: 28 days
Apis mellifera = settings: acute, mortality
Colinus virginianus = settings: oral
Anas platyrhynchos = settings: reproductive
[1] = chronic
Cyprinodon variegatus = settings: acute; duration: 96 hours; mortality
Daphnia magna = settings: chronic/long-term; duration: 21 days; reproduction
Canidae = settings: oral, Dog Other, organ weight
Pimephales promelas = settings: chronic/long-term; duration: 262 days; growth

Row | Compound | LD50 (Mus musculus) [mg/kg] | NOEC (Tagia sp.) [mg/kg] | NOEC (Folsomia candida) [mg/kg] | NOEC (Hypoaspis aculeifer) [mg/kg] | LR50 (Aphidius rhopalosiphi) [g/ha] | NOEC (Bibionidae) [mg/L] | LD50 (Apis mellifera; duration: 48 hours, dermal) [µg/piece] | LD50 (Apis mellifera; duration: 72 hours, oral, unspecified) [µg/piece] | LD50 (Colinus virginianus; acute, mortality) [mg/kg-day] | NOEC (Colinus virginianus; reproduction developmental, diet) [mg/kg-day] | NOEL (Anas platyrhynchos) [mg/kg-day] | NOEC [1] [mg/L] | LC50 (Cyprinodon variegatus) [µg/mL] | LD50 (Rattus norvegicus; acute, oral, mortality) [mg/kg] | NOAEL (Rattus norvegicus; chronic, duration: 2 years, organ weight) [mg/kg-day] | NOAEL (Rattus norvegicus; reproduction developmental, M, body weight) [mg/kg-day] | NOEC (Daphnia magna) [mg/L] | NOAEL (Canidae; chronic, duration: 1 years) [mg/kg-day] | NOAEL (Canidae; short-term, duration: 2 weeks) [mg/kg-day] | NOEC (Pimephales promelas) [mg/L]
1 | Cc1cc(C)cc(C(=O)N(NC(=O)c2cccc(O)c2C)C(C)(C)C)c1 | > 5000 |  |  |  |  |  |  |  |  |  |  |  |  |  |  |  |  |  |  | 
2 | COc1cccc(C(=O)NN(C(=O)c2cc(C)cc(C(=O)O)c2)C(C)(C)C)c1C |  | 20 | 20 | 1000 |  |  |  |  |  |  |  |  |  |  |  |  |  |  |  | 
3 | COc1cccc(C(=O)NN(C(=O)c2cc(C)cc(C)c2)C(C)(C)C)c1C [Methoxyfenozide] | > 5000 | 2.04 | 20.5 |  | > 192 | 0.0065 | > 100 | > 2000 | > 2250 | > 82.7 | 138 | 0.01 | > 2.8 | > 5000 | 10.2 | 153 | 0.39 | 9.8 | 18 | 0.53
